From US9067894B1, “Compound, composition, and method of activating GIRK potassium channel and use of same for treating conditions of interest” (Vanderbilt University, priority 2013, dated 2015)

Assays:
Format in all cases: cell-based
GIRK1/4 = target: T1, GIRK1/4 (Homo sapiens, UniProt P48544+P48549); assay: Thallium flux assay protocol (Examples 2 and 3), GIRK1/GIRK4 HEK-293 cells; conditions: for GIRK1/4 efficacy (activator): standardized to 2 (ML297) = 100%; for EC50: triplicate determinations
T1 construct: expressed in transfected cells; host or cells: HEK-293
T1 sequence (P48549 1-501): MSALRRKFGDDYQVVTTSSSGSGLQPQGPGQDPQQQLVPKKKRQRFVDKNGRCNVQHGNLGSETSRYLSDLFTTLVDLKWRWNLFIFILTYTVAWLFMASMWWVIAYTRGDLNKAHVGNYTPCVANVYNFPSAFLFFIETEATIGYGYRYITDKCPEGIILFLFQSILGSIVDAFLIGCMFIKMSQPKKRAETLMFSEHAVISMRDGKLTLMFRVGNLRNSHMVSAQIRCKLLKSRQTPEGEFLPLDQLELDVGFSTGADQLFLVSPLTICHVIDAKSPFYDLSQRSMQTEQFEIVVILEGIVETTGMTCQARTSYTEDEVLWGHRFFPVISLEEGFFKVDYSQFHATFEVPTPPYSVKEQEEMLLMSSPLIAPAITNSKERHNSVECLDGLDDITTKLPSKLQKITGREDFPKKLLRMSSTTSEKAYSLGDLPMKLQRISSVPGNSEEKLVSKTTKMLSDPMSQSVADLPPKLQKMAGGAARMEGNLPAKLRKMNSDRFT
T1 sequence (P48544 1-419): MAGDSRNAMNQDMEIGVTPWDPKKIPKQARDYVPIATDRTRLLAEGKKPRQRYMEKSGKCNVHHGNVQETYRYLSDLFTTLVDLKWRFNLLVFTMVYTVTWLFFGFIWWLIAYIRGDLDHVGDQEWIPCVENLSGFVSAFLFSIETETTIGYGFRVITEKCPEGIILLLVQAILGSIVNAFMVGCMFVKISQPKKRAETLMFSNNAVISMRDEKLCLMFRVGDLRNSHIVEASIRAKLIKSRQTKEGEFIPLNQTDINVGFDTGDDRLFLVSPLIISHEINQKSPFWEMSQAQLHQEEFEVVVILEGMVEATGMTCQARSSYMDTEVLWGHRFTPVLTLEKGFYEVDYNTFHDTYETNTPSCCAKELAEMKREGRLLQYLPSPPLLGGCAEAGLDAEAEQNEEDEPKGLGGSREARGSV
Description: (§1) Compounds were dissolved in DMSO, transferred to 384-well polypropylene plates, and serially diluted in DMSO using and Agilent Bravo (11-points, threefold dilutions). Serially diluted plates were dispensed to daughter plates using a Labcyte Echo555 and diluted to twofold over their target assay concentration with 20 mM HEPES-buffered (pH 7.4) Hanks Balanced Salt Solution (HBSS), hereafter referred to as Assay Buffer, using a Thermo Fisher Combi. Twenty-thousand HEK-293 cells/well stably transfected with the ion channel subunits of interest (e.g., GIRK1/GIRK2, GIRK1/GIRK4) were plated into 384-well, black-walled, clear-bottom, amine-coated coated plates in 20 LL/well alpha-minimal essential medium (MEM) supplemented with 10% (v/v) fetal bovine serum and incubated overnight in a 5% CO2 incubator at 37° C. Cell culture medium was removed from cell plates and replaced with 20 LL/well Assay Buffer. Twenty microliters/well of 0.5 LM of the thallium-sensitive dye, Thallos-AM (TEFlabs, Austin Tex.) in Assay Buffer was added to cell plates. Cell plates were incubated for 60 min at room temperature and then dye-loading solution was removed from cell plates and replaced with 20 LL/well Assay Buffer. Dye loaded and washed cell plates were transferred to a Hamamatsu FDSS 6000 and a double-addition protocol was initiated. After 10s, 20 LL/well of 20 LM test compound in 0.2% DMSO and Assay Buffer was added. After 4 min 10 LL/well of a 5× sodium bicarbonate-based thallium stimulus buffer (20 mM HEPES pH 7.4, 135 mM NaHCO3, 2 mM CaSO4, 1 mM MgSO4, 5 mM glucose, 12 mM Tl2SO4) was added and 2 more minutes of data collection followed. Fluorescence data were collected at 1 Hz. Data analysis: Waveform signals (fluorescence intensity vs time normalized by dividing each fluorescence value (F) by the initial fluorescence value for each trace (F0)) were reduced to single values by subtracting the average normalized waveform from vehicle control wells from each wave on the plate followed by obtaining the slope of the change in fluorescence immediately after the addition of the thallium stimulus. Slope values were normalized as a percentage of the slope obtained by the addition of a maximally effective concentration of the GIRK activator, ML297 (e.g., an efficacy value of 100% means that the compound's maximum apparent efficacy equals that of ML297). Curve fits for normalized slope values were obtained using a four-parameter logistic equation in the Excel add-in, XLfit.

GIRK1/2 [1] = target: T2, GIRK1/2 (Homo sapiens, UniProt P48051+P48549); assay: Thallium flux assay protocol (Examples 2 and 3), GIRK1/GIRK2 HEK-293 cells; set-up: expressed in transfected cells; host or cells: HEK-293; conditions: for GIRK1/2 efficacy (activator): standardized to 2 (ML297) = 100%; for EC50: triplicate determinations
T2 sequence (P48549 1-501): T1 sequence (P48549 1-501)
T2 sequence (P48051 1-423): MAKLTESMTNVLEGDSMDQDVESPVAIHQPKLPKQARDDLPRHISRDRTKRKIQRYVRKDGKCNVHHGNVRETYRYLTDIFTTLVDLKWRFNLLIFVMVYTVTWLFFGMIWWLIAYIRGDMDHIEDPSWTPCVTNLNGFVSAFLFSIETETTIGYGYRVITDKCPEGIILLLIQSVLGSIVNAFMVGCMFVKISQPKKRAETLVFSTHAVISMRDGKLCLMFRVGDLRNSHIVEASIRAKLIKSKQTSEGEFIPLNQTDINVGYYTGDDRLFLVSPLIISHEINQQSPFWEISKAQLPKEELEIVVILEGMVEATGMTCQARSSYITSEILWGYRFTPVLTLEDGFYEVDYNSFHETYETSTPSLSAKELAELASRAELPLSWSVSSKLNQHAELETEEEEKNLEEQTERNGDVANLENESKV
Description: as §1, with “Slope values were normalized as a percentage of the slope obtained by the addition of a maximally effective concentration of the GIRK activator, ML297 (e.g., an efficacy value of 100% means that the compound's maximum apparent efficacy equals that of ML297).” left out

GIRK1/2 [2] = target: T2, GIRK1/2; assay: Thallium flux assay, HEK-293 cells expressing GIRK1/2; set-up: host or cells: HEK-293; conditions: confirmed GIRK activator of GIRK1/2, HTS hit; read-out: EC50
Source text: Cell Line Construction and Cell Culture. HEK-293 cells co-expressing human GIRK1/2 and rat mGlu8 were generated as previously described (Niswender et al., 2008). A HEK-293 cell line (ATCC, Manassas, Va.) expressing human GIRK1 and human GIRK2 was constructed by transfecting HEK-293 cells with GIRK1 and GIRK2 (Origene, Rockville, Md.) cloned into the pBudCE4.1 vector (Life Technologies, Carlsbad, Calif.) using FuGene 6 (Promega, Madison, Wis.) transfection reagent. Unless otherwise noted, other ion channel-expressing cells were prepared by transfecting HEK-293 cells with individual or combinations of subunits: GIRK1, pCMV6-A-BSD; GIRK2, pCMV6-A-puro; GIRK3, pCMV6-A-hygro; GIRK4, pCMV6-A-AC; Kv7.4, pIRESneo3. The Kir2.1 and hERG-expressing cell lines were made by transfecting T-REx-293 cells (Life Technologies, Carlsbad, Calif.) with Kir2.1 and Kv11.1, respectively, cloned into pcDNA5TO. Monoclonal cell lines were produced by limiting-dilution cloning of antibiotic-resistant cells and functional selection using the thallium flux assay described below. Unless otherwise noted, cells were maintained in Minimal Essential Medium, Alpha Medium (Mediatech, Manassas, Va.) supplemented with 10% fetal bovine serum (Sigma-Aldrich, Saint Louis, Mo.) and GlutaGro (Mediatech, Manassas, Va.), referred to henceforth as cell culture medium. […]

| Structure (SMILES) | GIRK1/4 efficacy (activator) (GIRK1/4) [%] | GIRK1/2 efficacy (activator) (GIRK1/2 [1]) [%] | EC50 (GIRK1/4; Table 4, analogs 8) [µM] | further results |
| --- | --- | --- | --- | --- |
| Cc1ccc(NC(=O)Cc2ccccc2Br)cc1S(=O)(=O)N(C)C [3a] | 114 | 108 | – | – |
| Cc1cc(NC(=O)Nc2ccc(F)c(F)c2)n(Cc2ccccc2)n1 [5d] | 99 | 87 | – | – |
| Cc1ccc(NC(=O)Nc2ccc(C(F)(F)F)cc2)cc1S(=O)(=O)N(C)C [6h] | – | 26 | – | EC50 (GIRK1/2 [1]; Table 3, analogs 6 (ureas)): 15 µM |
| COc1ccc(OC)c(NC(=O)Nc2ccc(C)c(S(=O)(=O)N(C)C)c2)c1 [6i] | – | – | – | activity at GIRK1/4 (in words) (GIRK1/4): inactive; activity at GIRK1/2 (in words) (GIRK1/2 [1]): inactive |
| Cc1ccc(NC(=O)Nc2cccc(C#N)c2)cc1S(=O)(=O)N(C)C [6j] | – | – | – | EC50 (GIRK1/4; Table 3, analogs 6 (ureas)): 3.3 µM |
| Cc1cccc(NC(=O)Cc2ccccc2Cl)c1 [8i] | – | – | – | activity at GIRK1/4 (in words) (GIRK1/4): inactive; activity at GIRK1/2 (in words) (GIRK1/2 [1]): inactive |
| Cc1cc(NC(=O)Nc2ccccc2)n(-c2ccccc2)n1 [CID736191] | – | – | – | EC50 (GIRK1/2 [2]): ~1 µM |
| Cc1ccc(NC(=O)Cc2ccccc2Cl)cc1S(=O)(=O)N(C)C [compound 3] | 104 | 110 | – | – |

Now from value to compound, other results behind:

| GIRK1/4 efficacy (activator) (GIRK1/4) [%] | GIRK1/2 efficacy (activator) (GIRK1/2 [1]) [%] | EC50 (GIRK1/4; Table 4, analogs 8) [µM] | Structure (SMILES) | further results |
| --- | --- | --- | --- | --- |
| – | – | 2.7 | CC(C)(C)c1cccc(NC(=O)Cc2ccccc2Cl)c1 [8b] | EC50 (GIRK1/2 [1]; Table 4, analogs 8): 5.9 µM |
| – | – | 7.8 | O=C(Cc1ccccc1Cl)Nc1cccc(OC(F)F)c1 [8c] | – |
| – | – | > 10 | O=C(Cc1ccccc1Cl)Nc1cc(Cl)cc(C(F)(F)F)c1 [8d] | EC50 (GIRK1/2 [1]; Table 4, analogs 8): > 10 µM |
| 17 | – | 0.24 | O=C(Cc1ccccc1Cl)Nc1ccc(Cl)c(C(F)(F)F)c1 [8e] | activity at GIRK1/2 (in words) (GIRK1/2 [1]): inactive |
| 22 | – | 1.8 | O=C(Cc1ccccc1Cl)Nc1cccc(Cl)c1 [8g] | activity at GIRK1/4 (in words) (GIRK1/4): selective, partial GIRK1/4 activators |
